These are literature values, as cited in patent publication US20210319872A1, “DRUG AND DEVICE COMBINATION PRODUCTS WITH IMPROVED SAFETY AND EFFICACY PROFILES” (priority 2016, published 2021).

Where two headings read alike, the source gives them in different places. Some results are limits rather than exact numbers.

For the compound `CNCC[C@H](Oc1cccc2ccccc12)c1cccs1` [Duloxetine (Cymbalta)], where the note is “in vivo”, the Constipation result is listed as “Gastrointestinal: Constipation (9% to 10%), Decrease in appetite”; the Diaphoresis result is reported as “Dermatologic: Diaphoresis (Adult, 6%; pediatric, less than 2%)”; the Diarrhea entry is given as “(6% to 10%), Diarrhea (Adult, 9%; pediatric, 6%), Nausea (18% to”; the Dizziness entry was “Neurologic: Asthenia, Dizziness (Adult, 9%; pediatric, 8%),”. Besides, for the setting “in vivo”, the Headache result was “Headache (Adult, 13% to 14%; pediatric, 18%), Hypersomnia,”; the Hypertension entry is “Cardiovascular: Hypertension (2%)”; the Insomnia entry was “Insomnia (7% to 10%), Sedated, Somnolence”; the Myocardial infarction entry is reported as “Cardiovascular: Hypertensive crisis, Myocardial infarction (0.01%”. Moreover, the Xerostomia (in vivo) was 23%), Xerostomia (Adult, 11% to 14%; pediatric, 2%).
In the case of `CN1CCc2nc(C(=O)N[C@@H]3C[C@@H](C(=O)N(C)C)CC[C@@H]3NC(=O)C(=O)Nc3ccc(Cl)cn3)sc2C1` [Edoxaban (Savaysa)], under “in vivo”, the “Bleeding, Major” value is 3.1%; DVT or pulmonary embolism, 1.4%); the Hemorrhagic cerebral infarction entry is listed as “fibrillation, 0.3%), Intracranial hemorrhage (Nonvalvular atrial”; the Interstitial lung disease is on record as 0.2%); the Intracranial hemorrhage entry was “fibrillation, 0.5%; DVT or pulmonary embolism, 0.1%)”. For the same compound, for the setting “in vivo”, the “Liver function tests abnormal” value is reported as “fibrillation, 4.8%; DVT or pulmonary embolism, 7.8%)” and the Rash entry is “Dermatologic: Rash (3.6% to 4.2%)”.
With `CC(=O)O[C@]1(C(C)=O)CC[C@H]2[C@@H]3CCC4=CC(=O)CCC4=C3[C@@H](c3ccc(N(C)C)cc3)C[C@@]21C` [Ella], the Headache entry (in vivo) was “Neurologic: Headache (18% to 19%)”.
As for `CCOC(=O)[C@H](CCc1ccccc1)N[C@@H](C)C(=O)N1CCC[C@H]1C(=O)O` [Enalapril (Vasotec)], under “in vivo”, the Angioedema entry was “Other: Angioedema (0.1% to 1%)”, the Dizziness entry is reported as “Neurologic: Dizziness (4.3% to 7.9%)”, the Fatigue entry is given as “Other: Fatigue (3%)” and the Hyperkalemia result is given as “Endocrine metabolic: Hyperkalemia (1% to 3.8%)”. For the same compound, where the note is “in vivo”, the Hypotension result is “Cardiovascular: Hypotension (0.9% to 6.7%)” and the Serum creatinine raised result is “raised (0.2% (hypertension) to 20% (hypertension with renal artery”.
`CCCCc1ncc(/C=C(\Cc2cccs2)C(=O)O)n1Cc1ccc(C(=O)O)cc1` [Eprosartan (Teveten)]: for the setting “in vivo”, the Dizziness result was “Neurologic: Dizziness (3.8%)”, the Fatigue result was “Other: Fatigue (1.4%)”, the Myalgia result is reported as “Musculoskeletal: Myalgia (1.9%)” and the Neutropenia entry was “Hematologic: Neutropenia (1.3%)”. In addition, the “Serious side effects, listed without incidence or only as rare” value (in vivo) was “Dermatologic: Edema of face (rare)”.
As for `NC(=O)N1c2ccccc2C=Cc2ccccc21` [Equetro], where the note is “in vivo”, the Asthenia is 8%, the Ataxia is given as 15%, the Blurred vision is 6% and the Constipation is 10%. In addition, where the note is “in vivo”, the Dizziness is reported as 44%, the Nausea was 29%, the Pruritus is recorded as 8% and the Rash is given as 7%. For the setting “in vivo”, the Vomiting is given as 18% and the Xerostomia is 8%. Further, where the note is “listed without frequency”, the “Common side effect, Cardiovascular” value is on record as “Cardiovascular: Hypotension”; the “Common side effect, Neurologic” value was “Somnolence”; the “Common side effect, Ophthalmic” value is on record as “Nystagmus”; the “Serious side effect, Dermatologic” value is listed as “Stevens-Johnson syndrome”. In addition, where the note is “listed without frequency”, the “Serious side effect, Gastrointestinal” value is on record as “Gastrointestinal: Pancreatitis”; the “Serious side effect, Immunologic” value is listed as “Immunologic: Drug hypersensitivity syndrome”; the “Serious side effect, Neurologic” value is “Neurologic: Acute intermittent porphyria”; the “Serious side effect, Other” value is on record as “Other: Angioedema”. Besides, the “Serious side effect, Respiratory” value (listed without frequency) is “Respiratory: Pulmonary hypersensitivity”.
With `CN(C)CCC[C@@]1(c2ccc(F)cc2)OCc2cc(C#N)ccc21` [Escitalopram (Lexapro)], under “in vivo”, the Abdominal pain result is “Gastrointestinal: Abdominal pain (2%), Constipation (3% to 6%),”; the Constipation entry is recorded as “Gastrointestinal: Abdominal pain (2%), Constipation (3% to 6%),”; the Diaphoresis result is recorded as “Dermatologic: Diaphoresis (3% to 8%)”; the Diarrhea entry is given as “Diarrhea (6% to 14%), Indigestion (2% to 6%), Nausea (15% to”. Further, under “in vivo”, the Disorder of ejaculation entry was “Reproductive: Disorder of ejaculation (9% to 14%), Erectile”; the Dizziness result is “Neurologic: Dizziness (4% to 7%), Headache (24%), Insomnia (7%”; the Erectile dysfunction result was “dysfunction (3%), Orgasm incapacity (females, 2% to 6%),”; the Fatigue result is reported as “Other: Fatigue (5% to 8%)”. Moreover, under “in vivo”, the Headache result is given as “Neurologic: Dizziness (4% to 7%), Headache (24%), Insomnia (7%”; the Indigestion entry is reported as “Diarrhea (6% to 14%), Indigestion (2% to 6%), Nausea (15% to”; the Insomnia entry is “Neurologic: Dizziness (4% to 7%), Headache (24%), Insomnia (7%”; the Orgasm incapacity result is “dysfunction (3%), Orgasm incapacity (females, 2% to 6%),”. Also, for the setting “in vivo”, the Reduced libido entry was “Reduced libido (3% to 7%)”; the Somnolence result is “to 14%), Somnolence (4% to 13%)”; the Vomiting is on record as ≤ 18%), Vomiting (up to 3%), Xerostomia (4% to 9%); the Xerostomia is 18%), Vomiting (up to 3%), Xerostomia (4% to 9%).
In the case of `CCOC(=O)C1=C(C)NC(C)=C(C(=O)OC)C1c1cccc(Cl)c1Cl` (centres unmarked) [Felodipine (Plendil)], for the setting “in vivo”, the Flushing result is reported as “Dermatologic: Flushing (3.9% to 6.9%)”; the Headache result is listed as “Neurologic: Headache (10.6% to 14.7%)”; the Hypotension entry is “Cardiovascular: Angina, Hypotension (less than 0.5%), Myocardial”; the Indigestion result is recorded as “Gastrointestinal: Indigestion (0.5% to 3.9%)”. Further, where the note is “in vivo”, the Peripheral edema result is reported as “Cardiovascular: Peripheral edema (2% to 17.4%)” and the Upper respiratory infection entry was “Respiratory: Upper respiratory infection (0.7% to 3.9%)”.
Regarding `CNCCC(Oc1ccc(C(F)(F)F)cc1)c1ccccc1` (centres unmarked) [Fluoxetine (Prozac)], under “in vivo”, the Anxiety entry is given as “Psychiatric: Anxiety (3% to 15%), Feeling nervous (3% to 14%)”; the Asthenia entry is listed as “Neurologic: Asthenia (7% to 21%), Dizziness (2% to 11%),”; the Diarrhea result is given as “Gastrointestinal: Diarrhea (8% to 18%), Indigestion (6% to 10%),”; the Dizziness entry is listed as “Neurologic: Asthenia (7% to 21%), Dizziness (2% to 11%),”. In addition, under “in vivo”, the Feeling nervous result is on record as “Psychiatric: Anxiety (3% to 15%), Feeling nervous (3% to 14%)”; the Indigestion entry is listed as “Gastrointestinal: Diarrhea (8% to 18%), Indigestion (6% to 10%),”; the Influenza-like symptoms result was “Other: Influenza-like symptoms (3% to 12%)”; the Insomnia result is “Insomnia (9% to 33%), Somnolence (5% to 17%), Tremor (3% to”. Also, for the setting “in vivo”, the Nausea result is given as “Loss of appetite (3.8% to 17%), Nausea (12% to 29%), Xerostomia”; the Pharyngitis result is on record as “Respiratory: Pharyngitis (3% to 11%), Rhinitis (16% to 23%)”; the Rhinitis entry is reported as “Respiratory: Pharyngitis (3% to 11%), Rhinitis (16% to 23%)”; the Seizure result is on record as “Neurologic: Seizure (0.2%)”. Also, under “in vivo”, the Xerostomia result was “(4% to 12%)”.
With `CCC(=O)O[C@@H](O[P@](=O)(CCCCc1ccccc1)CC(=O)N1C[C@H](C2CCCCC2)C[C@H]1C(=O)O)C(C)C` [Fosinopril (Monopril)], for the setting “in vivo”, the Cough entry was “Respiratory: Cough (2.2% to 9.7%)”, the Dizziness entry is “Neurologic: Dizziness (1.6% to 11.9%)”, the Hyperkalemia result is on record as “Endocrine metabolic: Hyperkalemia (2.6%)” and the Hypotension entry is given as “Cardiovascular: Hypotension (2.4% to 4.4%)”. Also, the Nausea and vomiting result (in vivo) was “Gastrointestinal: Nausea and vomiting (1.2% to 2.2%)”.
For `NS(=O)(=O)c1cc(C(=O)O)c(NCc2ccco2)cc1Cl` [Furosemide (Lasix)], where the note is “in vivo”, the “Hyperuricemia (incidence)” value was “Endocrine metabolic: Hyperuricemia (40%), Hypomagnesemia”.
With `NCC1(CC(=O)O)CCCCC1` [Gabapentin (Neurontin)], where the note is “in vivo”, the Ataxia result was “Neurologic: Ataxia (Adult, 3%; adult and adolescent, 13%),”; the “Disorder of form of thought” value is “Psychiatric: Disorder of form of thought (Pediatric, 1.7%),”; the Disturbance in thinking result is on record as “Disturbance in thinking (2% to 3%), Hostile behavior (Pediatric,”; the Fatigue entry is “Other: Fatigue (3% to 11%), Fever (Pediatric, 10%)”. Further, for the setting “in vivo”, the Fever result is listed as “Other: Fatigue (3% to 11%), Fever (Pediatric, 10%)”; the Hostile behavior is listed as 5.2%), Hyperactive behavior (Pediatric, 4.7%), Mood swings; the Hyperactive behavior is on record as 5.2%), Hyperactive behavior (Pediatric, 4.7%), Mood swings; the Mood swings entry is reported as “(Pediatric, 6%), Suicidal thoughts”. Also, under “in vivo”, the Nausea result was “Gastrointestinal: Nausea (greater than 1%), Vomiting (3.3%)”; the Nystagmus entry was “Nystagmus (Adult and adolescent, 8%)”; the Peripheral edema entry is given as “Cardiovascular: Peripheral edema (1.7% to 8.3%)”; the “Serious side effect, Dermatologic” value is “Dermatologic: Stevens-Johnson syndrome”. Under “in vivo”, the “Serious side effect, Immunologic” value is “Immunologic: Drug hypersensitivity syndrome”; the “Serious side effect, Psychiatric” value is “(Pediatric, 6%), Suicidal thoughts”; the Viral disease entry is “Immunologic: Viral disease (10.9%)”; the Vomiting entry is given as “Gastrointestinal: Nausea (greater than 1%), Vomiting (3.3%)”.
For `Cc1ccsc1C(=CCCN1CCC[C@@H](C(=O)O)C1)c1sccc1C` [Gabitril], where the note is “in vivo”, the Confusion was 5%, the Disturbance in speech is listed as 4%, the Nausea was 11% and the Pruritus entry was “Dermatologic: Pruritus (2%)”. In addition, where the note is “listed without frequency”, the “Serious side effect, Dermatologic” value is on record as “Dermatologic: Stevens-Johnson syndrome”; the “Serious side effect, Neurologic” value was “Seizure, in patients without epilepsy”; the “Serious side effect, Psychiatric” value is reported as “Psychiatric: Suicidal thoughts”.
